Measurements published in ChEMBL document CHEMBL3243944, “Synthesis of spiro[isobenzofuran-1(3H),4'-piperidines] as potential central nervous system agents. 2. Compounds containing a heteroatom attached to nitrogen” (1977).

Tested on: Mus musculus
Test: Antitetrabenazine activity in ip dosed CD1 mouse assessed as inhibition of tetrabenazine-induced ptosis challenged with tetrabenazine after 30 mins later and after another 30 mins of drug treatment
Type: functional
Settings: 0.5 h

Structure (SMILES)	ED50 [mg/kg]
NN1CCC2(CC1)OC(c1ccccc1)c1ccccc12 (stereo unspecified)	6.8
O=NN1CCC2(CC1)OC(c1ccccc1)c1ccccc12 (stereo unspecified)	> 25
CC(C)NN1CCC2(CC1)OC(c1ccccc1)c1ccccc12 (stereo unspecified)	> 25
ON1CCC2(CC1)OC(c1ccccc1)c1ccccc12 (stereo unspecified)	1.4
O=C(ON1CCC2(CC1)OC(c1ccccc1)c1ccccc12)c1ccccc1 (stereo unspecified)	> 25
COc1ccc(C2OC3(CCN(O)CC3)c3ccccc32)cc1 (stereo unspecified)	3.5
COc1ccc2c(c1)C1(CCN(O)CC1)OC2c1ccccc1 (stereo unspecified)	4.7
ON1CCC2(CC1)OC(c1ccc(F)cc1)c1ccccc12 (stereo unspecified)	4
c1ccc(C2OC3(CCNCC3)c3ccccc32)cc1 (stereo unspecified)	0.5
CNCCCN1c2ccccc2CCc2ccccc21 [DESIPRAMINE]	0.8
CN(C)CCCN1c2ccccc2CCc2ccccc21 [IMIPRAMINE]	1.3
